# How the values were obtained:
# [1] = test system: transdifferentiating ELC (TuDC-ELC); test: Matrigel tube formation assay of TuDC-ELC; type: cell-based, human; conditions: for tube formation of TuDC-ELC in Matrigel: 10 μg/mL, 7 days, clinical and subclinical concentrations
# Source text: We have recently developed a model for an alternative pathway of tumor angiogenesis. […] These endothelial-like cells (ELC) can transdifferentiate from tumor-associated dendritic cells under specific culture conditions (11). Briefly, monocytes are elutriated from leukapheresis products of healthy human blood donors and cultured in the presence of granulocyte-macrophage-colony stimulating factor (GM-CSF) and interleukin 4 (IL-4) to stimulate the differentiation of dendritic cells (DC). In addition, cells are treated with a cocktail specifically released by tumor cells (M-CSF, IL.6 and lactate, Gottfried et al., manucript submitted) to promote the outgrowth of tumor-associated dendritic cells (TuDC).
# In addition, they are able to form tube-like structures in Matrigel™, an in vitro assay of angiogenesis.
# (§1) The Matrigel™ assay is one of the most popular and widely used in vitro angiogenesis assays (22). Matrigel™ is a semisolid synthetic mixture of extracellular matrix proteins which simulate the matrix that physiologically exist beneath the endothelial cell wall of a blood vessel. When the cells of question are seeded onto this matrix in microscopic chamber slides, they are activated to form tubular structures in 3-7 days, but only in the case that they have an endothelial phenotype. Therefore, this assay is suitable to show the potential capacity of cells to give rise to a tumor vasculature.
# (§2) TuDC-ELC and mature, differentiated endothelial cells, [human umbilical vene (HUVEC) or microvascular endothelial cells (HMEC) as “stable” controls] were incubated in the presence or absence of oligotide or Defibrotide (10 μg/mL each) for 7 days.
# By the help of a complimentary software from the NIH (Image J, http://rsb.info.nih.gov/ij/), we are able to quantify these effects, the total length of tubes and the area of the photograph are assessed, the microvascular density (MVD) is then given in total length/area [pix-1].
# [2] = test system: human gastric carcinoma; test: Dorsal skin chamber assay, human gastric carcinoma mouse model (Xenograft system); type: in vivo; conditions: first data; treated vs control tumors
# Source text: We are currently performing a dorsal skin chamber assay (14) that investigates the effect of defibrotide in a highly vascularized human gastric carcinoma mouse model (Xenograft system). […] This set of experiments will be reproduced in due time.
# [3] = test system: human umbilical vene (HUVEC) endothelial cells; test: Matrigel tube formation assay of HUVEC; type: cell-based; conditions: single addition, 10 μg/mL, 7 days
# Procedure: as §1, §2
# [4] = test system: activated p70S6 kinase (p-p70S6); test: Western Blot analyses of activated p70S6 kinase; type: cell-based; conditions: preliminary evidence
# [5] = test system: microvascular endothelial cells (HMEC); test: Matrigel tube formation assay of HMEC; type: cell-based, human; conditions: single addition, 10 μg/mL, 7 days
# Procedure: as §1, §2
# [6] = test system: human microvascular endothelial cells; test: Angiogenesis assay of microvascular endothelial cells vascularizing through a layer of dermal fibroblasts; type: cell-based
# Procedure: The aortic ring assay investigates macrovascular endothelial cells. But often, the tumor vasculature consists of microvascular endothelial cells. Therefore, a third in vitro angiogenesis assay was performed on the basis of microvascular endothelial cells vascularizing through a layer of dermal fibroblasts after 9-11 days of culture. These vessel-like structures can subsequently be visualized by staining for CD31 and vWF.
substance,measurement,setting,value
defibrotide,tube formation of TuDC-ELC in Matrigel,[1],inhibit tube formation
same,"microvascular density (MVD), total length/area","[1]; TuDC-ELC, p=0.02, TTEST, FIG. 1B",downregulates
same,microvascular density (MVD) of tumors,[2],lower than that of control tumors
same,tube formation potential,[3],not affected
same,effect on activated p70S6 kinase (p-p70S6),[4],downregulating effect
same,tube formation potential,[5],not affected
same,angiogenesis of human microvascular endothelial cells,"[6]; daily application, 9-11 days of culture, CD31 and vWF staining",block angiogenesis
same,most effective concentration,"[6]; human microvascular endothelial cells, FIGS. 3A and B",around 10 μg/mL
oligotide,tube formation of TuDC-ELC in Matrigel,[1],inhibit tube formation

# Source: patent publication US20080194507A1, “Defibrotide An/Or Oligodeoxyribonucleotides For Treating Angiogenesis-Dependent Tumors” (priority 2005, published 2008)
